# Data reported in patent US8569484B2, “Heterocyclic urea derivatives and methods of use thereof” (Astrazeneca AB, priority 2009, dated 2013).
# Target: S. aureus GyrB ATPase (Staphylococcus aureus, UniProt P0A0K8)
# Assay: S. aureus GyrB ATPase inhibition (ammonium molybdate/malachite green phosphate detection)
# Format: biochemical
# Conditions: 1 μM compound; S. aureus GyrB ATPase; read-out: Percent Inhibition (1 μM)
# Protocol: S. aureus GyrB ATPase Inhibition Activity: Compounds may be tested for inhibition of S. aureus GyrB ATPase activity using an ammonium molybdate/malachite green-based phosphate detection assay (Lanzetta, P. A., L. J. Alvarez, P. S. Reinach, and O. A. Candia, 1979, 100: 95-97). Assays can be performed in multiwell plates in 30 μl reactions containing: 50 mM Hepes buffer pH 7.5, 75 mM ammonium acetate, 8.0 mM magnesium chloride, 0.5 mM ethylenediaminetetraacetic acid, 5% glycerol, 1.0 mM 1,4-Dithio-DL-threitol, 200 nM bovine serum albumin, 1.0 μg/ml sheared salmon sperm DNA, 250 pM E. coli GyrA, 250 pM S. aureus GyrB, 250 μM ATP, and compound in dimethylsulfoxide. Reactions can be quenched with 30 μl of ammonium molybdate/malachite green detection reagent containing 1.2 mM malachite green hydrochloride, 8.5 mM ammonium molybdate tetrahydrate, and 1 M hydrochloric acid. Plates can be read in an absorbance plate reader at 650 nm and percent inhibition values can be calculated using dimethylsulfoxide (2%)-containing reactions as 0% inhibition and EDTA-containing ([…]) reactions as 100% inhibition controls. An IC50 measurement of compound potency for each compound can be determined from reactions performed in the presence of 10 different compound concentrations.
# S. aureus GyrB ATPase, sequence (P0AES4 whole entry): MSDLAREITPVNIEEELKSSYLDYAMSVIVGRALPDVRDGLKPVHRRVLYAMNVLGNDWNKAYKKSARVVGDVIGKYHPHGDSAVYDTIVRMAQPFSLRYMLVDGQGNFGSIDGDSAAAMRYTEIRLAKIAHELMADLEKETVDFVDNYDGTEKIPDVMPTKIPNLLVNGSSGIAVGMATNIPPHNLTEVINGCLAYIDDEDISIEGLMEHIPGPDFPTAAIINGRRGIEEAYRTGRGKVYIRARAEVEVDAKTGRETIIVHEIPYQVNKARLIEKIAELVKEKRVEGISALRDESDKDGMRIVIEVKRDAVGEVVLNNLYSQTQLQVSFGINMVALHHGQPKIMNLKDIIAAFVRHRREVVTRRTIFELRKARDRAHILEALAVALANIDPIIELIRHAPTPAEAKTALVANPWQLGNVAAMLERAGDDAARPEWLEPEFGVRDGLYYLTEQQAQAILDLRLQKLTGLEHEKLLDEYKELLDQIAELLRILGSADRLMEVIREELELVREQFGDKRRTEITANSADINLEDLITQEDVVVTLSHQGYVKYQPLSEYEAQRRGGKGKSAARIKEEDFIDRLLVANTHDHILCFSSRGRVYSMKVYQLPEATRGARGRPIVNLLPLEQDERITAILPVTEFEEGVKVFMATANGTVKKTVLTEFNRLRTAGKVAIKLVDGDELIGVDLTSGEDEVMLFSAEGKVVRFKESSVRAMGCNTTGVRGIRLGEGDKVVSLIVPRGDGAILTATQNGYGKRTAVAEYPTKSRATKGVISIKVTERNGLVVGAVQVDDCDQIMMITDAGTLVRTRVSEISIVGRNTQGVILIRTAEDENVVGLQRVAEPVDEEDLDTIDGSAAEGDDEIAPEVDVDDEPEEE
# S. aureus GyrB ATPase, sequence (P0A0K8 whole entry): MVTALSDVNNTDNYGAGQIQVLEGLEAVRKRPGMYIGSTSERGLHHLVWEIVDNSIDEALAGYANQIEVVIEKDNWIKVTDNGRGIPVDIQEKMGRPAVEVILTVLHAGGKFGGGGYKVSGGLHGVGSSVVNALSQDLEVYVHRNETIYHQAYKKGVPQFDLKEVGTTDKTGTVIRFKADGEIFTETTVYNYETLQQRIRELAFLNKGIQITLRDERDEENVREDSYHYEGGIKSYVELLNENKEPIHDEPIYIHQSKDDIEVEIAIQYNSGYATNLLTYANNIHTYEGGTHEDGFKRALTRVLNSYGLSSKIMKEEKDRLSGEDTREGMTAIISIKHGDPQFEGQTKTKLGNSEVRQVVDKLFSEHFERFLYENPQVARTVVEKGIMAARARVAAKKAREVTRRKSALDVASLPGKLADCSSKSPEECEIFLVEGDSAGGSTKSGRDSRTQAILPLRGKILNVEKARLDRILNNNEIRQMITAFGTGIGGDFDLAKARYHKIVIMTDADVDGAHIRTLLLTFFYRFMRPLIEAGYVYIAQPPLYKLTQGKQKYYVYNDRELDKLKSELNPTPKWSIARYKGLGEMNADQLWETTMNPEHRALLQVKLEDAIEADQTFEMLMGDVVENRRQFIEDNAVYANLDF
row,Compound,inhibition at 1 µM [%]
1,"CCNC(=O)Nc1cc(-c2nc(C(F)(F)F)cs2)c(-c2cnc3c(c2)c(=O)c(C(=O)O)cn3CCO)cn1 [Example 10, 6-{6-[(ethylcarbamoyl)amino]-4-[4-(trifluoromethyl)-1,3-thiazol-2-yl]pyridin-3-yl}-1-(2-hydroxyethyl)-4-oxo-1,4-dihydro-1,8-naphthyridine-3-carboxylic acid]",93
2,CCNC(=O)Nc1cc(-c2nc(C(F)(F)F)cs2)c(-c2cc3c(=O)c(C(=O)O)cn([C@H](CO)C(C)(C)C)c3cn2)cn1 [Example 71],103
3,CCNC(=O)Nc1cc(-c2nc(C(F)(F)F)cs2)c(-c2cnc3c(c2)c(=O)c(C(=O)O)cn3C2CN(C)C2)cn1 [Example 57],107
4,"CCNC(=O)Nc1cc(-c2nc(C(F)(F)F)cs2)c(-c2cnc3c(c2)c(=O)c(C(=O)OCCCOP(=O)(O)O)cn3CC)cn1 [Example 22, 3-(Phosphonooxy)propyl 1-ethyl-6-{6-[(ethylcarbamoyl)amino]-4-[4-(trifluoromethyl)-1,3-thiazol-2-yl]pyridin-3-yl}-4-oxo-1,4-dihydro-1,8-naphthyridine-3-carboxylate]",104
5,CCNC(=O)Nc1cc(-c2nc(C(F)(F)F)cs2)c(-c2cc3c(=O)c(C(=O)O)cn([C@H](CO)CC(C)C)c3cn2)cn1 [Example 45],107
6,"CCNC(=O)Nc1cc(-c2nc(C(F)(F)F)cs2)c(-c2cc3c(=O)c(C(=O)O)cn([C@H](CO)C(C)(C)C)c3nc2N2CCN(C)CC2)cn1 [Example 59, (S)-6-(6-(3-ethylureido)-4-(4-(trifluoromethyl)thiazol-2-yl)pyridin-3-yl)-1-(1-hydroxy-3,3-dimethylbutan-2-yl)-7-(4-methylpiperazin-1-yl)-4-oxo-1,4-dihydro-1,8-naphthyridine-3-carboxylic acid]",108
7,"CCNC(=O)Nc1cc(-c2nc(C(F)(F)F)cs2)c(-c2cnc3c(c2)c(=O)c(C(=O)O)cn3CCC2CCN(C)CC2)cn1 [Example 2, 6-(6-(3-ethylureido)-4-(4-(trifluoromethyl)thiazol-2-yl)pyridin-3-yl)-1-(2-(1-methylpiperidin-4-yl)ethyl)-4-oxo-1,4-dihydro-1,8-naphthyridine-3-carboxylic acid]",123
8,CCNC(=O)Nc1cc(-c2nc(C(F)(F)F)cs2)c(-c2cc3c(=O)c(C(=O)O)cn(C(C)(C)C)c3cn2)cn1 [Example 66],106
9,CCNC(=O)Nc1cc(-c2nc(C(F)(F)F)cs2)c(-c2cc3c(=O)c(C(=O)O)cn(CCN4CCN(C)CC4)c3nc2N2CC[C@H](N)C2)cn1 [Example 61],103
10,CCNC(=O)Nc1cc(-c2nc(C(F)(F)F)cs2)c(-c2cc3c(=O)c(C(=O)O)cn(CCC(C)(C)C)c3cn2)cn1 [Example 40],103
11,CCNC(=O)Nc1cc(-c2nc(-c3ccccc3)cs2)c(-c2cc3c(=O)c(C(=O)O)cn([C@@H]4CCCN(CCN5CCOCC5)C4)c3cn2)cn1 [Example 64],100
12,CCNC(=O)Nc1cc(-c2nc(C(F)(F)F)cs2)c(-c2cc3c(=O)c(C(=O)O)cn(C[C@@H]4CCN(CC)C4)c3cn2)cn1 [Example 74],100
13,CCNC(=O)Nc1cc(-c2nc(C(F)(F)F)cs2)c(-c2cnc3c(c2)c(=O)c(C(=O)O)cn3C[C@@H]2CCCN2CC)cn1 [Example 32],103

# Same assay, conditions: read-out: Percent Inhibition (1 μM)
row,Compound,inhibition at 1 µM [%]
1,CCNC(=O)Nc1cc(-c2nc(C(F)(F)F)cs2)c(-c2cnc3c(c2)c(=O)c(C(=O)O)cn3[C@@H]2CCCN(CCN3CCOCC3)C2)cn1 [Example 29],105

# Tested on: S. aureus
# Assay: Bacterial susceptibility testing in liquid media (MIC)
# Format: cell-based
# Conditions: Staphylococcus aureus; against S. aureus; lowest concentration able to reduce growth by 80% or more
# From the text: Compounds may be tested for antimicrobial activity by susceptibility testing in liquid media. Compounds may be dissolved in dimethylsulfoxide and tested in 10 doubling dilutions in the susceptibility assays. The organisms used in the assay may be grown overnight on suitable agar media and then suspended in a liquid medium appropriate for the growth of the organism. The suspension can be a 0.5 McFarland and a further 1 in 10 dilution can be made into the same liquid medium to prepare the final organism suspension in 100 μL. Plates can be incubated under appropriate conditions at 37° C. for 24 hrs prior to reading. The Minimum Inhibitory Concentration (MIC) may be determined as the lowest drug concentration able to reduce growth by 80% or more.
row,Compound,MIC [µM]
1,"CCNC(=O)Nc1cc(-c2nc(C(F)(F)F)cs2)c(-c2cnc3c(c2)c(=O)c(C(=O)O)cn3CCO)cn1 [Example 10, 6-{6-[(ethylcarbamoyl)amino]-4-[4-(trifluoromethyl)-1,3-thiazol-2-yl]pyridin-3-yl}-1-(2-hydroxyethyl)-4-oxo-1,4-dihydro-1,8-naphthyridine-3-carboxylic acid]",0.55
